Source: patent US20250177393A1, “MODULATORS OF MYC FAMILY PROTO-ONCOGENE PROTEIN” (Nalo Therapeutics, priority 2022, published 2025)

Assays:
MycC = biological target: T1, MycC (Homo sapiens, UniProt P01106); test: Degradation of MycC protein in L363 cells (JESS/Western blot); format: cell-based; conditions: L-363 cells, 24 h; for Dmax at 0.5 µM: read-out: % Degradation of MycC (L-363) 24 h, 0.5 μM; for Dmax at 1 µM: read-out: % Degradation of MycC (L-363) 24 h, 1 μM; for Dmax at 3 µM: read-out: % Degradation of MycC (L-363) 24 h, 3 μM; for Dmax at 6 µM: read-out: % Degradation of MycC (L-363) 24 h, 6 μM
T1 construct: endogenous in cells; host or cells: L363
T1 sequence (P01106 whole entry): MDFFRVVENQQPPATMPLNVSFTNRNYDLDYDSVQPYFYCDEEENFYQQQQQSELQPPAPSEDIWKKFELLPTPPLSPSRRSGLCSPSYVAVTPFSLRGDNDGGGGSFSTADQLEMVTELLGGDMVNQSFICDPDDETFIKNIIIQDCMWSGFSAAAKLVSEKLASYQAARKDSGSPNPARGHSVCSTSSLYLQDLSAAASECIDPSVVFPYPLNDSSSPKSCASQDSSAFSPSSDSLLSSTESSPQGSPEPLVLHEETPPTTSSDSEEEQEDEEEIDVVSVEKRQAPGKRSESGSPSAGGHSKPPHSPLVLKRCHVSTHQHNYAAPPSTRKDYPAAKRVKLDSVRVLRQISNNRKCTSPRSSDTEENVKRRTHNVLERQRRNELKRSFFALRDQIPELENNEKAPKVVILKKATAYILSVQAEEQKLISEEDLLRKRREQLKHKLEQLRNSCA
Method: (§1) For L363 cells (suspension), 1E6 cells were plated into each well of a 6 well plate. For SK—N-BE(2) cells (adherent), 5E5 cells were plated into each well of a 6 well dish. […] All compounds were diluted to 10 mM in DMSO. Cells were treated with the compound for 24 hrs, then for both cell types, media containing cells were removed from wells into a 15 ml centrifuge tube, and remaining adherent SK—N-BE(2) cells were also scraped from the wells into the appropriate tubes. Tubes were centrifuged, cells were washed with PBS then re-centrifuged to pellet cells. A RIPA buffer cocktail was added to the cells on ice for 5 mins. Cell lysates were clarified by centrifugation and stored at −80 degrees until required. BCA assay was performed on each lysate to determine the protein concentration. For validation studies of antibodies, lysates and antibodies were used at a number of concentrations (Lysates: 2, 1, 0.2 mg/ml; Antibodies: 1 in 50, 1 in 200 dilution). Once an appropriate lysate concentration and antibody concentration was determined, samples were screened in the JESS technology (Protein Simple, San Jose, CA—https://www.proteinsimple.com/jess.html). Target protein antibodies (n-myc and c-myc) were detected in the chemiluminescence channel and loading controls (tubulin and GAPDH) were detected using a Near Infra Red (NIR) labeled secondary antibody. For SK—N-EB2 adherent cells, 5E5 cells in 1.9 mls media were plated into 6 well dishes and incubated for 24 hrs. […] Cells were scrapped off the plate, centrifuged, washed with PBS, centrifuged, then a RIPA buffer cocktail added to the cells (100 ul), centrifuged and stored at −80 for later analysis. For L363 suspension cells, 1E6 cells were plated into 24 well dishes (950 ul media) and incubated for 24 hrs. […] Cells were aspirated into tubes, centrifuged, washed with PBS, centrifuged, then a RIPA buffer cocktail added to the cells (100 ul), centrifuged and stored at −80 for later analysis. For Western blot, a BCA (total protein) assay was run on all samples, these were then run in batches of 5 compounds plus control (DMSO) on each Western blot run—n-myc and c-myc were run in separate experiments in the chemiluminescence channel. Both tubulin and GAPDH were run as loading controls in all lanes in the near infra red channel.

MycN = biological target: T2, MycN (Homo sapiens, UniProt P04198); test: Degradation of MycN protein in SK-N-BE(2) cells (JESS/Western blot); format: cell-based; conditions: SKNBE2 cells, 24 h; for Dmax at 0.5 µM: read-out: % Degradation of MycN (SKNBE2) 24 h, 0.5 μM; for Dmax at 1 µM: read-out: % Degradation of MycN (SKNBE2) 24 h, 1 μM; for Dmax at 3 µM: read-out: % Degradation of MycN (SKNBE2) 24 h, 3 μM; for Dmax at 6 µM: read-out: % Degradation of MycN (SKNBE2) 24 h, 6 μM
T2 construct: endogenous in cells; host or cells: SK-N-BE(2)
T2 sequence (P04198 1-464): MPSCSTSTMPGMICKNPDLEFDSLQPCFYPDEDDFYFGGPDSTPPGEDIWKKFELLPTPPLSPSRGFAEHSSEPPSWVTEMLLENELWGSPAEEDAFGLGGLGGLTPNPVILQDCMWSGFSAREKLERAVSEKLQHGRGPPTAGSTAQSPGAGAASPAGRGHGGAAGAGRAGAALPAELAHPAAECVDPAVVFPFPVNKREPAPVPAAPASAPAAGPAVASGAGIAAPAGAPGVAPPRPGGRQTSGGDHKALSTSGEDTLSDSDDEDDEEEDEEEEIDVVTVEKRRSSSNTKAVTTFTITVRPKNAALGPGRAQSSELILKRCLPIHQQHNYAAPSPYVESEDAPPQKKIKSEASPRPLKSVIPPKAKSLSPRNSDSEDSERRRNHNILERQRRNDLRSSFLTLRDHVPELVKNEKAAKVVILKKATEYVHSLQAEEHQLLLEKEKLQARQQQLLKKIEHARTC
Method: as §1

Q: How did the Dmax at 0.5 µM (MycC) turn out when `Cn1cc(C(=O)N2CC3(CC(Nc4nccc(Nc5cc(C6CCCC6)[nH]n5)n4)C3)C2)nn1` [Compound 39, (6-((4-((5-Cyclopentyl-1H-pyrazol-3-yl)amino)pyrimidin-2-yl)amino)-2-azaspiro[3.3]heptan-2-yl)(1-methyl-1H-1,2,3-triazol-4-yl)methanone] was run?
A: 20 to 49%

Q: And the Dmax at 1 µM (MycC)?
A: 20 to 49%

Q: And the Dmax at 3 µM (MycC)?
A: 20 to 49%

Q: And the Dmax at 6 µM (MycC)?
A: 80 to 100%

Q: And the Dmax at 0.5 µM (MycN)?
A: 20 to 49%

Q: And the Dmax at 1 µM (MycN)?
A: < 20%

Q: What about the Dmax at 3 µM (MycN) of the same compound?
A: 80 to 100%

Q: What about the Dmax at 6 µM (MycN) of the same compound?
A: 80 to 100%

Q: `c1cc(Nc2cc(C3CCCC3)[nH]n2)nc(NC2CCC3(CC2)CNC3)n1` [Compound 40, N^2-(2-Azaspiro[3.5]nonan-7-yl)-N^4-(5-cyclopentyl-1H-pyrazol-3-yl)pyrimidine-2,4-diamine] was tested. Which Dmax at 1 µM (MycC) did it give?
A: < 20%

Q: What about the Dmax at 3 µM (MycC) of the same compound?
A: 80 to 100%

Q: What about the Dmax at 6 µM (MycC) of the same compound?
A: 80 to 100%

Q: And the Dmax at 0.5 µM (MycN)?
A: 50 to 79%

Q: What about the Dmax at 1 µM (MycN) of the same compound?
A: 80 to 100%

Q: What about the Dmax at 3 µM (MycN) of the same compound?
A: 80 to 100%

Q: What about the Dmax at 6 µM (MycN) of the same compound?
A: 80 to 100%

Q: `F[C@H]1CNCC[C@H]1Nc1nccc(Nc2cc(C3CC3)[nH]n2)n1` [Compound 41, N4-(5-Cyclopropyl-1H-pyrazol-3-yl)-N2-[(3S,4R)-3-fluoro-4-piperidyl]pyrimidine-2,4-diamine] was tested. Which Dmax at 6 µM (MycC) did it give?
A: 80 to 100%

Q: And the Dmax at 0.5 µM (MycN)?
A: < 20%

Q: What about the Dmax at 1 µM (MycN) of the same compound?
A: < 20%

Q: And the Dmax at 3 µM (MycN)?
A: 20 to 49%

Q: What about the Dmax at 6 µM (MycN) of the same compound?
A: 80 to 100%

Q: Which results are given for `F[C@@H]1CNCC[C@@H]1Nc1nccc(Nc2cc(C3CC3)[nH]n2)n1` [Compound 44, N^4-(5-Cyclopropyl-1H-pyrazol-3-yl)-N^2-[(3R,4S)-3-fluoro-4-piperidyl]pyrimidine-2,4-diamine]?
A: Dmax at 0.5 µM (MycC): < 20%; Dmax at 1 µM (MycC): 20 to 49%; Dmax at 3 µM (MycC): 20 to 49%; Dmax at 6 µM (MycC): < 20%; Dmax at 0.5 µM (MycN): < 20%; Dmax at 1 µM (MycN): 20 to 49%; Dmax at 3 µM (MycN): 20 to 49%; Dmax at 6 µM (MycN): 50 to 79%

Q: With `CN1CC2(CCC(N(C)c3nccc(Nc4cc(C5CC5)[nH]n4)n3)CC2)C1` [Compound 49, N4-(5-Cyclopropyl-1H-pyrazol-3-yl)-N2-methyl-N2-(2-methyl-2-azaspiro[3.5]nonan-7-yl)pyrimidine-2,4-diamine] as the compound, how does the Dmax at 0.5 µM (MycC) read?
A: 50 to 79%

Q: What about the Dmax at 1 µM (MycC) of the same compound?
A: 80 to 100%

Q: And the Dmax at 3 µM (MycC)?
A: 80 to 100%

Q: What about the Dmax at 6 µM (MycC) of the same compound?
A: 80 to 100%

Q: What about the Dmax at 0.5 µM (MycN) of the same compound?
A: 50 to 79%

Q: And the Dmax at 1 µM (MycN)?
A: 80 to 100%

Q: What about the Dmax at 3 µM (MycN) of the same compound?
A: 80 to 100%

Q: And the Dmax at 6 µM (MycN)?
A: 80 to 100%

Q: `c1cc(Nc2cc(C3CC3)[nH]n2)nc(NC2CCOCC2)n1` [Compound 65, N4-(5-Cyclopropyl-1H-pyrazol-3-yl)-N2-tetrahydropyran-4-yl-pyrimidine-2,4-diamine] was tested. Which Dmax at 0.5 µM (MycC) did it give?
A: 20 to 49%

Q: What about the Dmax at 1 µM (MycC) of the same compound?
A: 80 to 100%

Q: What about the Dmax at 3 µM (MycC) of the same compound?
A: 80 to 100%

Q: What about the Dmax at 6 µM (MycC) of the same compound?
A: 80 to 100%

Q: And the Dmax at 0.5 µM (MycN)?
A: 20 to 49%

Q: What about the Dmax at 1 µM (MycN) of the same compound?
A: 50 to 79%

Q: What about the Dmax at 3 µM (MycN) of the same compound?
A: 80 to 100%

Q: What about the Dmax at 6 µM (MycN) of the same compound?
A: 80 to 100%
